Results reported in patent US11497212B2, “Substituted thiophenyl uracils, salts thereof and the use thereof as herbicidal agents” (Syngenta Crop Protection AG, priority 2017, dated 2022).

Key:
Type in all cases: in vivo
[1] = tested on: Glycine max; test: Crop compatibility pre-emergence (greenhouse pot trial); conditions: application rate 80 g/ha, effect vs untreated controls
Text: (§1) Seeds of mono- and dicotyledonous weeds and crop plants were laid out in plastic or organic plant pots and covered with soil. The compounds of the invention formulated in the form of wettable powders (WP) or emulsion concentrates (EC) were then applied to the surface of the covering soil as an aqueous suspension or emulsion with addition of 0.5% additive at a water application rate equivalent to 600 L/ha. After the treatment, the pots were placed in a greenhouse and kept under good growth conditions for the test plants. After about 3 weeks, the efficacy of the preparations was scored visually as a percentage by comparison with untreated controls. For example, 100% efficacy=plants have died, 0% efficacy=like control plants.
(§2) Crop compatibilities were also scored correspondingly.
(§3) The effects observed are reported here on selected crop plants by comparison with the untreated controls (values in %).

[2] = tested on: Zea mays; test: as above; conditions: application rate 80 g/ha, effect vs untreated controls
Text: as §1, §2, §3

[3] = tested on: Triticum aestivum; test: Crop compatibility post-emergence (greenhouse pot trial)
Outline: (§4)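 Crops grown in sandy loam in greenhouse, sprayed at one-leaf stage (2–3 weeks after sowing) with WP or EC formulations in water plus 0.5% additive, 600 L/ha. Damage scored visually after about 3 weeks versus untreated controls, 0% = like control, 100% = dead.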

[4] = tested on: Oryza sativa; test: as above
Outline: as §4

[5] = tested on: Zea mays; test: as above; conditions: application rate 20 g/ha
Outline: as §4

[6] = tested on: Veronica persica; test: Herbicidal action post-emergence (greenhouse pot trial); conditions: application rate 20 g/ha
Outline: (§5)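 Sowing in sandy loam, then 2–3 weeks of controlled greenhouse growth. Next, one-leaf-stage plants received a foliar spray of the WP- or EC-formulated compound with 0.5% additive (600 L/ha water, application rate of 80 g/ha or below). Finally, after about 3 weeks under optimal conditions, effect was judged by eye against controls.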

[7] = tested on: Matricaria inodora; test: as above; conditions: application rate 20 g/ha, scored visually after about 3 weeks vs untreated controls
Outline: as §5

[8] = tested on: Abutilon theophrasti; test: as above; conditions: application rate 20 g/ha, scored visually after about 3 weeks vs untreated controls
Outline: as §5

[9] = tested on: Pharbitis purpurea; test: as above; conditions: application rate 20 g/ha
Outline: as §5

[10] = tested on: Amaranthus retroflexus; test: as above; conditions: application rate 20 g/ha, scored visually after about 3 weeks vs untreated controls
Outline: as §5

[11] = tested on: Polygonum convolvulus; test: as above; conditions: application rate 20 g/ha, scored visually after about 3 weeks vs untreated controls
Outline: as §5

[12] = tested on: Viola tricolor; test: as above; conditions: application rate 20 g/ha
Outline: as §5

[13] = tested on: Veronica persica; test: Herbicidal action pre-emergence (greenhouse pot trial); conditions: application rate 80 g/ha
Text: as §1, with “control plants. Tables B1 to B16 below show the efficacies of selected compounds of the general formula (I) according to tables I.1 to I.60 on various harmful plants and an application rate corresponding to 320 g/ha or lower that were obtained by the aforementioned trial method.” for “control plants.”

[14] = tested on: Matricaria inodora; test: as above; conditions: scored after about 3 weeks
Text: as §1, with “control plants. Tables B1 to B16 below show the efficacies of selected compounds of the general formula (I) according to tables I.1 to I.60 on various harmful plants and an application rate corresponding to 320 g/ha or lower that were obtained by the aforementioned trial method.” for “control plants.”

[15] = tested on: Abutilon theophrasti; test: as above; conditions: scored after about 3 weeks
Text: as §1, with “control plants. Tables B1 to B16 below show the efficacies of selected compounds of the general formula (I) according to tables I.1 to I.60 on various harmful plants and an application rate corresponding to 320 g/ha or lower that were obtained by the aforementioned trial method.” for “control plants.”

[16] = tested on: Amaranthus retroflexus; test: as above; conditions: scored after about 3 weeks
Text: as §1, with “control plants. Tables B1 to B16 below show the efficacies of selected compounds of the general formula (I) according to tables I.1 to I.60 on various harmful plants and an application rate corresponding to 320 g/ha or lower that were obtained by the aforementioned trial method.” for “control plants.”

[17] = tested on: Viola tricolor; test: as above; conditions: scored after about 3 weeks
Text: as §1, with “control plants. Tables B1 to B16 below show the efficacies of selected compounds of the general formula (I) according to tables I.1 to I.60 on various harmful plants and an application rate corresponding to 320 g/ha or lower that were obtained by the aforementioned trial method.” for “control plants.”

[18] = tested on: Stellaria media; test: Herbicidal action post-emergence (greenhouse pot trial); conditions: application rate 20 g/ha, scored visually after about 3 weeks vs untreated controls
Outline: as §5

[19] = tested on: Pharbitis purpurea; test: Herbicidal action pre-emergence (greenhouse pot trial); conditions: application rate 320 g/ha
Text: as §1, with “control plants. Tables B1 to B16 below show the efficacies of selected compounds of the general formula (I) according to tables I.1 to I.60 on various harmful plants and an application rate corresponding to 320 g/ha or lower that were obtained by the aforementioned trial method.” for “control plants.”

[20] = tested on: Setaria viridis; test: as above; conditions: application rate 320 g/ha, scored after about 3 weeks
Text: as §1, with “control plants. Tables B1 to B16 below show the efficacies of selected compounds of the general formula (I) according to tables I.1 to I.60 on various harmful plants and an application rate corresponding to 320 g/ha or lower that were obtained by the aforementioned trial method.” for “control plants.”

[21] = tested on: Echinochloa crus-galli; test: as above; conditions: application rate 320 g/ha, scored after about 3 weeks
Text: as §1, with “control plants. Tables B1 to B16 below show the efficacies of selected compounds of the general formula (I) according to tables I.1 to I.60 on various harmful plants and an application rate corresponding to 320 g/ha or lower that were obtained by the aforementioned trial method.” for “control plants.”

[22] = tested on: Alopecurus myosuroides; test: Herbicidal action post-emergence (greenhouse pot trial); conditions: application rate 20 g/ha, scored visually after about 3 weeks vs untreated controls
Outline: as §5

[23] = tested on: Digitaria sanguinalis; test: as above; conditions: application rate 20 g/ha
Outline: as §5

[24] = tested on: Setaria viridis; test: as above; conditions: application rate 20 g/ha, scored visually after about 3 weeks vs untreated controls
Outline: as §5

[25] = tested on: Echinochloa crus-galli; test: as above; conditions: application rate 20 g/ha, scored visually after about 3 weeks vs untreated controls
Outline: as §5

CC(Sc1cc(-n2c(=O)cc(C(F)(F)F)n(C)c2=O)c(F)cc1Cl)C(=O)OCC1CCCCO1 (centres unmarked) [I.1-91]
Glycine max (Efficacy in %) [1]: 20% | Zea mays (Efficacy in %) [2]: 0% | Triticum aestivum (Efficacy in %) ([3]; application rate 5 g/ha): 10% | Oryza sativa (Efficacy in %) ([4]; application rate 20 g/ha): 10% | Zea mays (Efficacy in %) [5]: 20% | Veronica persica (Efficacy in %) [6]: 100% | Matricaria inodora (Efficacy in %) [7]: 100% | Abutilon theophrasti (Efficacy in %) [8]: 100% | Pharbitis purpurea (Efficacy in %) [9]: 100% | Amaranthus retroflexus (Efficacy in %) [10]: 100% | Polygonum convolvulus (Efficacy in %) [11]: 100% | Viola tricolor (Efficacy in %) [12]: 100% | Veronica persica (Efficacy in %) [13]: 100% | Matricaria inodora (Efficacy in %) ([14]; application rate 80 g/ha): 100% | Abutilon theophrasti (Efficacy in %) ([15]; application rate 80 g/ha): 100% | Amaranthus retroflexus (Efficacy in %) ([16]; application rate 80 g/ha): 100% | Viola tricolor (Efficacy in %) ([17]; application rate 80 g/ha): 100%

CC(Sc1cc(-n2c(=O)cc(C(F)(F)F)n(C)c2=O)c(F)cc1Cl)C(=O)OC1CCSCC1 (centres unmarked) [I.1-132]
Glycine max (Efficacy in %) [1]: 20% | Zea mays (Efficacy in %) [2]: 0% | Triticum aestivum (Efficacy in %) ([3]; application rate 5 g/ha): 10% | Oryza sativa (Efficacy in %) ([4]; application rate 20 g/ha): 0% | Zea mays (Efficacy in %) [5]: 20% | Veronica persica (Efficacy in %) [6]: 100% | Matricaria inodora (Efficacy in %) [7]: 100% | Abutilon theophrasti (Efficacy in %) [8]: 100% | Pharbitis purpurea (Efficacy in %) [9]: 100% | Stellaria media (Efficacy in %) [18]: 80% | Amaranthus retroflexus (Efficacy in %) [10]: 100% | Polygonum convolvulus (Efficacy in %) [11]: 100% | Viola tricolor (Efficacy in %) [12]: 100% | Matricaria inodora (Efficacy in %) ([14]; application rate 80 g/ha): 100% | Abutilon theophrasti (Efficacy in %) ([15]; application rate 80 g/ha): 100% | Amaranthus retroflexus (Efficacy in %) ([16]; application rate 80 g/ha): 100% | Viola tricolor (Efficacy in %) ([17]; application rate 80 g/ha): 90%

COCCOCCOC(=O)C(C)Sc1cc(-n2c(=O)cc(C(F)(F)F)n(C)c2=O)c(F)cc1Cl (centres unmarked) [I.1-23]
Glycine max (Efficacy in %) [1]: 0% | Zea mays (Efficacy in %) [2]: 10% | Oryza sativa (Efficacy in %) ([4]; application rate 5 g/ha): 10% | Matricaria inodora (Efficacy in %) ([14]; application rate 320 g/ha): 100% | Abutilon theophrasti (Efficacy in %) ([15]; application rate 320 g/ha): 100% | Pharbitis purpurea (Efficacy in %) [19]: 100% | Amaranthus retroflexus (Efficacy in %) ([16]; application rate 320 g/ha): 100% | Setaria viridis (Efficacy in %) [20]: 100% | Echinochloa crus-galli (Efficacy in %) [21]: 100% | Viola tricolor (Efficacy in %) ([17]; application rate 320 g/ha): 100%

Cn1c(C(F)(F)F)cc(=O)n(-c2cc(SCC(C)(C)C(=O)OCC3CCOCC3)c(Cl)cc2F)c1=O [I.48-93]
Triticum aestivum (Efficacy in %) ([3]; application rate 20 g/ha): 0% | Oryza sativa (Efficacy in %) ([4]; application rate 20 g/ha): 0% | Veronica persica (Efficacy in %) [6]: 100% | Abutilon theophrasti (Efficacy in %) [8]: 100% | Pharbitis purpurea (Efficacy in %) [9]: 100% | Stellaria media (Efficacy in %) [18]: 100% | Amaranthus retroflexus (Efficacy in %) [10]: 100% | Polygonum convolvulus (Efficacy in %) [11]: 80% | Alopecurus myosuroides (Efficacy in %) [22]: 80% | Viola tricolor (Efficacy in %) [12]: 100%

Cn1c(C(F)(F)F)cc(=O)n(-c2cc(SCC(C)(C)C(=O)OC3CCOC3)c(Cl)cc2F)c1=O (centres unmarked) [I.48-121]
Triticum aestivum (Efficacy in %) ([3]; application rate 20 g/ha): 0% | Oryza sativa (Efficacy in %) ([4]; application rate 20 g/ha): 0% | Veronica persica (Efficacy in %) [6]: 100% | Matricaria inodora (Efficacy in %) [7]: 100% | Digitaria sanguinalis (Efficacy in %) [23]: 80% | Abutilon theophrasti (Efficacy in %) [8]: 100% | Pharbitis purpurea (Efficacy in %) [9]: 100% | Stellaria media (Efficacy in %) [18]: 80% | Amaranthus retroflexus (Efficacy in %) [10]: 100% | Polygonum convolvulus (Efficacy in %) [11]: 100% | Alopecurus myosuroides (Efficacy in %) [22]: 80% | Viola tricolor (Efficacy in %) [12]: 100%

CCC(Sc1cc(-n2c(=O)cc(C(F)(F)F)n(C)c2=O)c(F)cc1Cl)C(=O)OCC1CCCCO1 (centres unmarked) [I.2-91, Tetrahydro-2H-pyran-2-ylmethyl 2-({2-chloro-4-fluoro-5-[3-methyl-2,6-dioxo-4-(trifluoromethyl)-3,6-dihydropyrimidin-1(2H)-yl]phenyl}sulfanyl)butanoate]
Triticum aestivum (Efficacy in %) ([3]; application rate 5 g/ha): 20% | Veronica persica (Efficacy in %) [6]: 100% | Matricaria inodora (Efficacy in %) [7]: 100% | Abutilon theophrasti (Efficacy in %) [8]: 100% | Pharbitis purpurea (Efficacy in %) [9]: 100% | Stellaria media (Efficacy in %) [18]: 80% | Amaranthus retroflexus (Efficacy in %) [10]: 100% | Setaria viridis (Efficacy in %) [24]: 100% | Echinochloa crus-galli (Efficacy in %) [25]: 100% | Polygonum convolvulus (Efficacy in %) [11]: 100% | Alopecurus myosuroides (Efficacy in %) [22]: 90% | Viola tricolor (Efficacy in %) [12]: 100%

COC(C)COC(=O)C(C)Sc1cc(-n2c(=O)cc(C(F)(F)F)n(C)c2=O)c(F)cc1Cl (centres unmarked) [I.1-51]
Triticum aestivum (Efficacy in %) ([3]; application rate 20 g/ha): 20% | Veronica persica (Efficacy in %) [6]: 100% | Matricaria inodora (Efficacy in %) [7]: 100% | Digitaria sanguinalis (Efficacy in %) [23]: 100% | Abutilon theophrasti (Efficacy in %) [8]: 100% | Pharbitis purpurea (Efficacy in %) [9]: 100% | Stellaria media (Efficacy in %) [18]: 80% | Amaranthus retroflexus (Efficacy in %) [10]: 100% | Setaria viridis (Efficacy in %) [24]: 100% | Echinochloa crus-galli (Efficacy in %) [25]: 100% | Polygonum convolvulus (Efficacy in %) [11]: 100% | Alopecurus myosuroides (Efficacy in %) [22]: 80% | Viola tricolor (Efficacy in %) [12]: 100%

CCC(Sc1cc(-n2c(=O)cc(C(F)(F)F)n(C)c2=O)c(F)cc1Cl)C(=O)OCC1CCCOC1 (centres unmarked) [I.2-92, Tetrahydro-2H-pyran-3-ylmethyl 2-({2-chloro-4-fluoro-5-[3-methyl-2,6-dioxo-4-(trifluoromethyl)-3,6-dihydropyrimidin-1(2H)-yl]phenyl}sulfanyl)butanoate]
Triticum aestivum (Efficacy in %) ([3]; application rate 5 g/ha): 20% | Veronica persica (Efficacy in %) [6]: 100% | Matricaria inodora (Efficacy in %) [7]: 100% | Digitaria sanguinalis (Efficacy in %) [23]: 100% | Abutilon theophrasti (Efficacy in %) [8]: 100% | Pharbitis purpurea (Efficacy in %) [9]: 100% | Stellaria media (Efficacy in %) [18]: 100% | Amaranthus retroflexus (Efficacy in %) [10]: 100% | Setaria viridis (Efficacy in %) [24]: 100% | Echinochloa crus-galli (Efficacy in %) [25]: 100% | Polygonum convolvulus (Efficacy in %) [11]: 100% | Alopecurus myosuroides (Efficacy in %) [22]: 80% | Viola tricolor (Efficacy in %) [12]: 100%
